# Measurements published in patent US20210355121A1, “FUSED TRICYCLIC KRAS INHIBITORS” (Incyte Corporation, priority 2020, published 2021).
# Columns and labels:
# KRAS G12V = KRAS G12V (Homo sapiens, UniProt P01116, G12V); experiment: KRAS G12V GDP-GTP exchange assay (bodipy-GDP for GppNHp, with SOS1); format: biochemical; conditions: 2.5 nM bodipy loaded KRAS G12V, 3 hours after GppNHp-SOS1; read-out: G12V_exchange (KRAS_G12V exchange assay IC50)
# Method: (§1) The inhibitor potency of the exemplified compounds was determined in a fluorescence based guanine nucleotide exchange assay, which measures the exchange of bodipy-GDP (fluorescently labeled GDP) for GppNHp (Non-hydrolyzable GTP analog) to generate the active state of KRAS in the presence of SOS1 (guanine nucleotide exchange factor). Inhibitors were serially diluted in DMSO and a volume of 0.1 μL was transferred to the wells of a black low volume 384-well plate. 5 μL/well volume of bodipy-loaded KRAS G12C diluted to 5 nM in assay buffer (25 mM Hepes pH 7.5, 50 mM NaCl, 10 mM MgCl2 and 0.01% Brij-35) was added to the plate and pre-incubated with inhibitor for 2 hours at ambient temperature. Appropriate controls (enzyme with no inhibitor or with a G12C inhibitor (AMG-510)) were included on the plate. The exchange was initiated by the addition of a 5 μL/well volume containing 1 mM GppNHp and 300 nM SOS1 in assay buffer. The 10 μL/well reaction concentration of the bodipy-loaded KRAS G12C, GppNHp, and SOS1 were 2.5 nM, 500 uM, and 150 nM, respectively. The reaction plates were incubated at ambient temperature for 2 hours, a time estimated for complete GDP-GTP exchange in the absence of inhibitor. For the KRAS G12D and G12V mutants, similar guanine nucleotide exchange assays were used with 2.5 nM as final concentration for the bodipy loaded KRAS proteins and with 4 hours and 3 hours incubation after adding GppNHp-SOS1 mixture for G12D and G12V respectively. A cyclic peptide described to selectively bind G12D mutant (Sakamoto et al., BBRC 484.3 (2017), 605-611) or internal compounds with confirmed binding were used as positive controls in the assay plates. Fluorescence intensities were measured on a PheraStar plate reader instrument (BMG Labtech) with excitation at 485 nm and emission at 520 nm.
# (§2) Either GraphPad prism or XLfit was used to analyze the data. The IC50 values were derived by fitting the data to a four parameter logistic equation producing a sigmoidal dose-response curve with a variable Hill coefficient. Prism equation: Y=Bottom+(Top−Bottom)/(1+10^((Log IC50−X)*Hill slope)); XLfit equation: Y=(A+((B−A)/(1+((X/C)^D)))) where X is the logarithm of inhibitor concentration and Y is the response.
# KRAS G12D = KRAS G12D (Homo sapiens, UniProt P01116, G12D); experiment: KRAS G12D GDP-GTP exchange assay (bodipy-GDP for GppNHp, with SOS1); format: biochemical; conditions: 2.5 nM bodipy loaded KRAS G12D, 4 hours after GppNHp-SOS1; read-out: G12D_exchange (KRAS_G12D exchange assay IC50)
# Method: as §1, §2
# KRAS G12V, sequence (P01116 1-188 isoform P01116-2 G12V): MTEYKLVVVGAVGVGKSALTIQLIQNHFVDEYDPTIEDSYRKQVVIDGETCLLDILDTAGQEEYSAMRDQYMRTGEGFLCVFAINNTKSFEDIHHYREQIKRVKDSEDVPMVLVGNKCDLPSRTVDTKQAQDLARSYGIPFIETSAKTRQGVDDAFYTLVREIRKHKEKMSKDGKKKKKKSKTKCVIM
# KRAS G12D, sequence (P01116 1-188 isoform P01116-2 G12D): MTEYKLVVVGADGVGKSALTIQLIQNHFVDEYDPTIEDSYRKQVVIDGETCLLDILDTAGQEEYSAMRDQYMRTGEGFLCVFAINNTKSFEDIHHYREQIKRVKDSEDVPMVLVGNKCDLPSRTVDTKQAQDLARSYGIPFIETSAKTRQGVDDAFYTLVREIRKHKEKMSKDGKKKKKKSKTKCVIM
SMILES,IC50 (KRAS G12V),IC50 (KRAS G12D)
"CN1CCC[C@H]1COc1nc2c(F)c(-c3cc(O)cc4ccccc34)c(CCC#N)cc2c2c1c(-c1ccccc1)cn2C1C2CNC1C2 (stereo partly drawn) [Example 34, 3-(1-(2-azabicyclo[2.1.1]hexan-5-yl)-6-fluoro-7-(3-hydroxynaphthalen-1-yl)-4-(((S)-1-methylpyrrolidin-2-yl)methoxy)-3-phenyl-1H-pyrrolo[3,2-c]quinolin-8-yl)propanenitrile]",1000 to 5000 nM,100 to 1000 nM
"CN1CCC[C@H]1COc1nc2c(F)c(-c3cc(O)cc4ccccc34)c(CCC#N)cc2c2c1c(-c1cnn(C)c1)cn2C1C2CNC1C2 (stereo partly drawn) [Example 38, 3-(1-(2-azabicyclo[2.1.1]hexan-5-yl)-6-fluoro-7-(3-hydroxynaphthalen-1-yl)-3-(1-methyl-1H-pyrazol-4-yl)-4-(((S)-1-methylpyrrolidin-2-yl)methoxy)-1H-pyrrolo[3,2-c]quinolin-8-yl)propanenitrile]",100 to 1000 nM,≤ 100 nM
"CN1CCC[C@H]1COc1nc2c(F)c(-c3cc(O)cc4ccccc34)c(CCC#N)cc2c2c1cc(Cc1ccccc1)n2C1C2CNC1C2 (stereo partly drawn) [Example 40, 3-(2-benzyl-1-(2-azabicyclo[2.1.1]hexan-5-yl)-6-fluoro-7-(3-hydroxynaphthalen-1-yl)-4-(((S)-1-methylpyrrolidin-2-yl)methoxy)-1H-pyrrolo[3,2-c]quinolin-8-yl)propanenitrile]",1000 to 5000 nM,100 to 1000 nM
"CN1CCC[C@H]1COc1nc2c(F)c(-c3cc(O)cc4ccccc34)c(CCC#N)cc2c2c1c(-c1ccc(=O)[nH]c1)cn2C1C2CNC1C2 (stereo partly drawn) [Example 42, 3-(1-(2-azabicyclo[2.1.1]hexan-5-yl)-6-fluoro-7-(3-hydroxynaphthalen-1-yl)-4-(((S)-1-methylpyrrolidin-2-yl)methoxy)-3-(6-oxo-1,6-dihydropyridin-3-yl)-1H-pyrrolo[3,2-c]quinolin-8-yl)propanenitrile]",100 to 1000 nM,≤ 100 nM
"CN1CCC[C@H]1COc1nc2c(F)c(-c3cc(O)cc4ccccc34)c(CCC#N)cc2c2c1c(Cl)cn2C1C2CNC1C2 (stereo partly drawn) [Example 43, 3-(1-(2-azabicyclo[2.1.1]hexan-5-yl)-3-chloro-6-fluoro-7-(3-hydroxynaphthalen-1-yl)-4-(((S)-1-methylpyrrolidin-2-yl)methoxy)-1H-pyrrolo[3,2-c]quinolin-8-yl)propanenitrile]",100 to 1000 nM,≤ 100 nM
"CN1CCC[C@H]1COc1nc2c(F)c(-c3cc(O)cc4ccccc34)c(CCC#N)cc2c2c1c(C(=O)NCCO)cn2C1C2CNC1C2 (stereo partly drawn) [Example 44, 1-(2-azabicyclo[2.1.1]hexan-5-yl)-8-(2-cyanoethyl)-6-fluoro-N-(2-hydroxyethyl)-7-(3-hydroxynaphthalen-1-yl)-4-(((S)-1-methylpyrrolidin-2-yl)methoxy)-1H-pyrrolo[3,2-c]quinoline-3-carboxamide]",100 to 1000 nM,≤ 100 nM
"CN1CCC[C@H]1COc1nc2c(F)c(-c3cc(O)cc4ccccc34)c(CCC#N)cc2c2c1c(C(=O)NCc1ccccc1)cn2C1C2CNC1C2 (stereo partly drawn) [Example 45, N-Benzyl-1-(2-azabicyclo[2.1.1]hexan-5-yl)-8-(2-cyanoethyl)-6-fluoro-7-(3-hydroxynaphthalen-1-yl)-4-(((S)-1-methylpyrrolidin-2-yl)methoxy)-1H-pyrrolo[3,2-c]quinoline-3-carboxamide]",100 to 1000 nM,≤ 100 nM
"CN1CCC[C@H]1COc1nc2c(F)c(-c3cc(O)cc4ccccc34)c(CCC#N)cc2c2c1c(CO)cn2C1C2CNC1C2 (stereo partly drawn) [Example 46, 3-(1-(2-Azabicyclo[2.1.1]hexan-5-yl)-6-fluoro-3-(hydroxymethyl)-7-(3-hydroxynaphthalen-1-yl)-4-(((S)-1-methylpyrrolidin-2-yl)methoxy)-1H-pyrrolo[3,2-c]quinolin-8-yl)propanenitrile]",100 to 1000 nM,≤ 100 nM
"COC(=O)CCc1c(N2CC(N(C)C)C2)c2c(OC)nc3c(F)c(-c4cc(O)cc5ccccc45)c(CCC#N)cc3c2n1[C@H]1[C@H]2CN[C@@H]1C2 [Example 49, methyl 3-(1-((1R,4R,5S)-2-azabicyclo[2.1.1]hexan-5-yl)-8-(2-cyanoethyl)-3-(3-(dimethylamino)azetidin-1-yl)-6-fluoro-7-(3-hydroxynaphthalen-1-yl)-4-methoxy-1H-pyrrolo[3,2-c]quinolin-2-yl)propanoate]",100 to 1000 nM,100 to 1000 nM

# Second part, the compound after the results:
IC50 (KRAS G12V),IC50 (KRAS G12D),SMILES
100 to 1000 nM,≤ 100 nM,"CN1CCC[C@H]1COc1nc2c(F)c(-c3cc(O)cc4ccccc34)c(CCC#N)cc2c2c1c(-c1cccnc1)cn2C1C2CNC1C2 (stereo partly drawn) [Example 35, 3-(1-(2-azabicyclo[2.1.1]hexan-5-yl)-6-fluoro-7-(3-hydroxynaphthalen-1-yl)-4-(((S)-1-methylpyrrolidin-2-yl)methoxy)-3-(pyridin-3-yl)-1H-pyrrolo[3,2-c]quinolin-8-yl)propanenitrile]"
100 to 1000 nM,≤ 100 nM,"Cc1ncc(-c2cn(C3C4CNC3C4)c3c2c(OC[C@@H]2CCCN2C)nc2c(F)c(-c4cc(O)cc5ccccc45)c(CCC#N)cc23)o1 (stereo partly drawn) [Example 36, 3-(1-(2-azabicyclo[2.1.1]hexan-5-yl)-6-fluoro-7-(3-hydroxynaphthalen-1-yl)-3-(2-methyloxazol-5-yl)-4-(((S)-1-methylpyrrolidin-2-yl)methoxy)-1H-pyrrolo[3,2-c]quinolin-8-yl)propanenitrile]"
100 to 1000 nM,≤ 100 nM,"Cc1ncc(-c2cn(C3C4CNC3C4)c3c2c(OC[C@@H]2CCCN2C)nc2c(F)c(-c4cc(O)cc5ccccc45)c(CCC#N)cc23)s1 (stereo partly drawn) [Example 37, 3-(1-(2-azabicyclo[2.1.1]hexan-5-yl)-6-fluoro-7-(3-hydroxynaphthalen-1-yl)-4-(((S)-1-methylpyrrolidin-2-yl)methoxy)-3-(2-methylthiazol-5-yl)-1H-pyrrolo[3,2-c]quinolin-8-yl)propanenitrile]"
≤ 100 nM,≤ 100 nM,"CN1CCC[C@H]1COc1nc2c(F)c(-c3cc(O)cc4ccccc34)c(CCC#N)cc2c2c1cc(-c1ccn(C)n1)n2C1C2CNC1C2 (stereo partly drawn) [Example 39, 3-(1-(2-azabicyclo[2.1.1]hexan-5-yl)-6-fluoro-7-(3-hydroxynaphthalen-1-yl)-2-(1-methyl-1H-pyrazol-3-yl)-4-(((S)-1-methylpyrrolidin-2-yl)methoxy)-1H-pyrrolo[3,2-c]quinolin-8-yl)propanenitrile]"
≤ 100 nM,≤ 100 nM,"CN1CCC[C@H]1COc1nc2c(F)c(-c3cc(O)cc4ccccc34)c(CCC#N)cc2c2c1c(-c1cn[nH]c1)cn2C1C2CNC1C2 (stereo partly drawn) [Example 41, 3-(1-(2-azabicyclo[2.1.1]hexan-5-yl)-6-fluoro-7-(3-hydroxynaphthalen-1-yl)-4-(((S)-1-methylpyrrolidin-2-yl)methoxy)-3-(1H-pyrazol-4-yl)-1H-pyrrolo[3,2-c]quinolin-8-yl)propanenitrile]"
≤ 100 nM,≤ 100 nM,"CCOc1nc2c(F)c(-c3cc(O)cc4ccccc34)c(CCC#N)cc2c2c1cc(CCC(=O)N(C)C)n2[C@H]1[C@H]2CN[C@@H]1C2 [Example 48, 3-(1-((1R,4R,5S)-2-azabicyclo[2.1.1]hexan-5-yl)-8-(2-cyanoethyl)-4-ethoxy-6-fluoro-7-(3-hydroxynaphthalen-1-yl)-1H-pyrrolo[3,2-c]quinolin-2-yl)-N,N-dimethylpropanamide]"
≤ 100 nM,≤ 100 nM,"CN1CCC[C@H]1COc1nc2c(F)c(-c3cccc4ccc(F)cc34)c(CCC#N)cc2c2c1cc(CCC(=O)N1CCC1)n2C1C2CNC1C2 (stereo partly drawn) [Example 50, 3-(2-(3-(azetidin-1-yl)-3-oxopropyl)-1-(2-azabicyclo[2.1.1]hexan-5-yl)-6-fluoro-7-(7-fluoronaphthalen-1-yl)-4-(((S)-1-methylpyrrolidin-2-yl)methoxy)-1H-pyrrolo[3,2-c]quinolin-8-yl)propanenitrile]"
